Consider three compounds from patent publication US20080153838A1, “Compounds Having Tie2 (Tek) Activity” (ASTRAZENECA AB, priority 2005, published 2008).

The term IC50 denotes the concentration that inhibits the measured activity by half.

For assay [1], the target named is T1, Tie2 receptor tyrosine kinase (Homo sapiens, UniProt Q02763). The assay can be described thus: In vitro receptor tyrosine kinase inhibition assay (ELISA, Test (a)). On the set-up: consist of only the intracellular portion C-terminal portion of the respective receptor, within which is found the kinase domain; made in house; host or cells: baculovirus/Sf21 insect cells; cleared lysate used without purification. As to conditions: recombinant human Tie2 kinase domain, peptide substrate. The assay is classed as biochemical. Here is the method: a. In Vitro Receptor Tyrosine Kinase Inhibition Assay
To test for inhibition of Tie2 receptor tyrosine kinase, compounds are evaluated in a non-cell based protein kinase assay by their ability to inhibit the protein kinase enzyme phosphorylation of a tyrosine containing polypeptide substrate in an ELISA based microtitre plate assay. In this particular case, the assay was to determine the IC50, for three different recombinant human tyrosine kinases Tie2, KDR and Flt.
To facilitate production of the tyrosine kinases, recombinant receptor genes were produced using standard molecular biology cloning and mutagenesis techniques. These recombinant proteins fragments encoded within these genes consist of only the intracellular portion C-terminal portion of the respective receptor, within which is found the kinase domain. The recombinant genes encoding the kinase domain containing fragments were cloned and expressed in standard baculovirus/Sf21 system (or alternative equivalent). […]
Constitutive kinase activity of these recombinant proteins was determined by their ability to phosphorylate a synthetic peptide (made up of a random co-polymer of Glutamic Acid, Alanine and Tyrosine in the ratio of 6:3:1). […]
The immobilised phospho-peptide product of the reaction was detected by immunological methods. […] Following extensive washing with PBS-T, HRP activity in each well of the plate was measured […] using 22′-Azino-di-[3-ethylbenzthiazoline sulfonate (6)] diammonium salt crystals ABTS (Sigma P4922—prepared as per manufactures instructions) as a substrate incubated for 30-45 minutes to allow colour development, before 100 ul of 1M H2SO4 was added to stop the reaction.
Quantification of colour development and thus enzyme activity was achieved by the measurement of absorbance at 405 nm on a Molecular Devices ThermoMax microplate reader. Kinase inhibition for a given compound was expressed as an IC50 value. […] The range of phosphorylation was calculated from the positive (vehicle plus ATP) and negative (vehicle minus ATP) control values.
Target sequence in this assay (Q02763 770-1124 limits assumed): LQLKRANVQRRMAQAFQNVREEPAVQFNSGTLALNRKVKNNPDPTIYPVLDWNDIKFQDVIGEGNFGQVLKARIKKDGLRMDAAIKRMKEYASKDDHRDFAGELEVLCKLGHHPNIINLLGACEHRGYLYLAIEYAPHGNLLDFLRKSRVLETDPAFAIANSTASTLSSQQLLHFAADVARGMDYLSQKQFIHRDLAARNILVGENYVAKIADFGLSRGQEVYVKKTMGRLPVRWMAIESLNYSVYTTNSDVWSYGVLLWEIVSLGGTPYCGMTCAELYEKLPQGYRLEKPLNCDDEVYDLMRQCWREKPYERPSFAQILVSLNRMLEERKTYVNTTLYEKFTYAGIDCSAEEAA

Assay [2] addresses T1, Tie2 receptor tyrosine kinase. Kind of assay: Cellular Tie2 autophosphorylation assay (Test (b)). The format is cell-based. On the set-up: one can use natural cell lines or primary cells which are known to express the receptor of choice; endogenous in cells; host or cells: EA.hy926/B3 cells (HUVEC named as alternative). As to conditions: Ang1 ligand stimulated whole cells (e.g. EA.hy926/B3); read-out: IC50 (μM) Test (b): Inhibition of autophosphorylation of Tie2 receptor tyrosine kinase. The text has this:
b. Cellular Tie2 Autophosphorylation Assay
This assay is based on measuring the ability of compounds to inhibit autophosphorylation of the Tie2 receptor which normally leads to the production of “activated” receptor that in turn initiates the particular signal transduction pathways associated with the receptor function.
Autophosphorylation can be achieved by a number of means. It is known that expression of recombinant kinase domains in baculoviral systems can lead to the production of phosphorylated and activated receptor. It is also reported that over expression of receptors in recombinant cell lines can itself lead to receptor autophosphorylation in the absence of the ligand (Heldin C-H. 1995 Cell: 80, 213-223; Blume-J. P, Hunter T. 2001 Nature: 411, 355-65). Furthermore, there are numerous literature examples in which chimaeric receptors have been constructed. In these cases the natural, external cell surface domain of the receptor has been replaced with that of a domain which is known to be readily dimerised via the addition of the appropriate ligand (e.g. TrkA-Tie2/NGF ligand (Marron, M. B., et al., 2000 Journal of Biological Chemistry: 275:39741-39746) or C-fms-Tie-1/CSF-1 ligand (Kontos, C. D., et al., 2002 Molecular and Cellular Biology: 22, 1704-1713). Thus when the chimaeric receptor expressed in a host cell line and the respective ligand is added, this induces autophosphorylation of the chimeric receptor's kinase domain. This approach has the advantage of often allowing a known (and often easily obtained) ligand to be used instead of having to identify and isolate the natural ligand for each receptor of interest.
Naturally if the ligand is available one can use natural cell lines or primary cells which are known to express the receptor of choice and simply stimulate with ligand to achieve ligand induced phosphorylation. […]
Target sequence in this assay (Q02763 23-1124): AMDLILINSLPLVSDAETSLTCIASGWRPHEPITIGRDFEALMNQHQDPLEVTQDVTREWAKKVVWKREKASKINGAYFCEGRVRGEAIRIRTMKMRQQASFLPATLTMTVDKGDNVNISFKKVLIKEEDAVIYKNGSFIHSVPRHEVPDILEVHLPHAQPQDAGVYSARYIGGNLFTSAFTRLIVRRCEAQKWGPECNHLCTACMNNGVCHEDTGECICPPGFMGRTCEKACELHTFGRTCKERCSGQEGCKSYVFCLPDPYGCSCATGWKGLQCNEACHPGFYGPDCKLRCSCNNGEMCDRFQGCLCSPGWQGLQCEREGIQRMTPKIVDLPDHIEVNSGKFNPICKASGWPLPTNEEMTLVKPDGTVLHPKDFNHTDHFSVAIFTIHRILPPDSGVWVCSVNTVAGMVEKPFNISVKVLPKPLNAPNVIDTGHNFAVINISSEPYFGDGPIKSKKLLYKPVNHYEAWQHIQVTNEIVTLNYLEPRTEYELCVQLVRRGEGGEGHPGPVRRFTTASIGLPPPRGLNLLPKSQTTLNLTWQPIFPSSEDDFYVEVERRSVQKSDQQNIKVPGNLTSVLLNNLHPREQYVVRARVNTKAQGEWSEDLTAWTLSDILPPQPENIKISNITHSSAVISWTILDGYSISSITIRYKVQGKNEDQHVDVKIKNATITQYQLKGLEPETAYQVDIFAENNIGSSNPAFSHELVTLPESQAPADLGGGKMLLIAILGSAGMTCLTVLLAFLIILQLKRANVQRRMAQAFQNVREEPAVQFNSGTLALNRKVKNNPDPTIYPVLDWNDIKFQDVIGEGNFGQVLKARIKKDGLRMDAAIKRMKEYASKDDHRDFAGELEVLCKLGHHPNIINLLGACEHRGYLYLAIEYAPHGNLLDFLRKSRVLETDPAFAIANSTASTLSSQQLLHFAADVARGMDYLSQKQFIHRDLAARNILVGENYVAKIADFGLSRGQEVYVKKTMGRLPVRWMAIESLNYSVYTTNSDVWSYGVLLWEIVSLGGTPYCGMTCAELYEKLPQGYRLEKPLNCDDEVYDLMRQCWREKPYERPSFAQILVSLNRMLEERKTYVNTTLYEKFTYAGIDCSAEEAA

On to `CC(C)(C)c1cc(NC(=O)Nc2cccc(C#Cc3ccc(N)nc3)c2)no1` [Example 2, N-{3-[(6-aminopyridin-3-yl)ethynyl]phenyl}-N′-(5-tert-butylisoxazol-3-yl)urea], for which the half-maximal inhibitory concentration (IC50) worked out at 2.6 µM in assay [1] and 0.031 µM in assay [2].
For `CC(C)(C)c1cc(NC(=O)Nc2cccc(C#Cc3cccnc3N)c2)no1` [Example 3, N-2{3-[(2-aminopyridin-3-yl)ethynyl]phenyl}-N′-(5-tert-butylisoxazol-3-yl)urea], the IC50 amounted to 8.2 µM in assay [1] and 0.077 µM in assay [2].
The like results for `CC(C)(C)c1cc(NC(=O)Nc2cccc(C#Cc3cnc(N)cn3)c2)no1` [Example 5, N-{3-[(5-aminopyrazin-2-yl)ethynyl]phenyl}-N′-(5-tert-butylisoxazol-3-yl)urea] were, in that order, 4.4 µM and 0.02 µM.
